Structures can show the parent of a compound that is named as a salt.
What was measured:
PANC-1 cells = assay: Inhibition of cancer cell proliferation, total cellular protein (Sulphorhodamine B), PANC-1; details: Homo sapiens, 72 h, read-out: IC50 based on quantitation of total cellular protein after treatment
Description: (§1) To assess the antiproliferative response elicited by the compounds of the present invention in different tumour cell lines, total cellular protein in samples was quantified using the Sulphorhodamine B kit, TOX6, (Sigma-Aldrich). The protocol is based on quantitation of total cellular protein after indicated treatments and incubation times using the Sulphorhodamine B kit, TOX6, (Sigma-Aldrich).
(§2) Briefly, after protein precipitation using TCA according to the manufacturer's instructions, the sulphorhodamine dye (80 μL/well) was added to the air-dried wells. After 20 min incubation at room temperature, the dye was discarded and the samples were gently rinsed with 1% HOAc until clear. After air drying, bound dye was solubilised in 200 μL 10 mM Tris base, and the absorbance of dye was measured at 565 nm. To quantify growth, samples were collected also at t=0 h, and the resulting absorbance was set to 100%.
(§3) For experiments studying the effect of the herein described compounds per se, i.e. without combination treatment with cisplatin, the above protocol was applied with the following modifications. See Table II for details for each specific cell line. Briefly, cells were plated at a density of 6,000 cells/well 96-well Corning Costar tissue culture plates (CLS3596, Sigma-Aldrich) in assay medium and allowed to attach over night at 37° C., 5% CO2. Day 2 the compounds were diluted ½ in dose response curve mode in 100% DMSO, required volume was transferred to assay medium to a maximal DMSO concentration of 0.1%. The diluted compounds were added to the cells with a starting dose response concentration of 100 μM. All compounds were tested in duplicate plates.
as §2, with “After” for “Briefly, after”, “sulforhodamine B” for “sulphorhodamine”, “(50” for “(80”, “100” for “200”, “530 nm and a background absorbance (subtract from the measurement at 530 nm) at 690” for “565”, “h.” for “h, and the resulting absorbance was set to 100%.”

F-2,6-P2 in SW620 cells = assay: Quantification of F-2,6-P2 (Van Schaftingen coupled enzyme assay) in SW620 cells; format: cell-based; details: Homo sapiens, SW-620, read-out: IC50 based on quantification of F-2,6-P2
Description: (§4) A method for quantification of F-2,6-P2 has been described by Van Schaftingen et al. (1982) Eur. J. Biochem. 129, 191-5. This sensitive assay is based on the potent activation of pyrophosphate dependent phosphofructokinase-1 (PPi-PFK) from potato tubers by F-2,6-P2. The use of a series of coupled enzymes leads to a consumption of NADH (nicotinamide adenine dinucleotide) that can be followed spectrophotometrically (an updated protocol is available in Van Schaftingen, (1984) Methods of Enzymatic Analysis (Bergmeyer, H. U., ed.), 3rd edn., vol. 6, pp. 335-341, Verlag Chemie, Weinheim). A protocol for measurements in 96-well microtiter plate format is also available (Bruni et al., (1989) Anal. Biochem. 178, 324-6).
(§5) The levels of F-2,6-P2 have been determined using the van Shaftingen assay as described in the protocol below, in six different cancer cell lines endogenously expressing varying levels of the different isoforms of PFK-2/BPase-2 (MCF-7, PANC-1, NUGC-3, SW480, SW620 and MIA PaCa-2). All reagents were purchased from commercial sources or prepared in-house.
Cell line E (SW620, human colorectal adenocarcinoma): SW620 cells (ATCC-CCL-227), lot. no. 58483168. Cells were seeded at a concentration of ˜350 000 cells/mL in 100 μL growth medium (˜35 000 cells/well).
Growth medium (cell lines B-F): Dulbecco's Modified Eagle's Medium, DMEM, VWR, LONZ12-604F; 10% FBS, Invitrogen, 10270-106. […]

NUGC-3 cells = assay: Inhibition of cancer cell proliferation, total cellular protein (Sulphorhodamine B), NUGC-3; details: Homo sapiens, 72 h, read-out: IC50 based on quantitation of total cellular protein after treatment
Description: as §1, §2, §3
as §2, with “After” for “Briefly, after”, “sulforhodamine B” for “sulphorhodamine”, “(50” for “(80”, “100” for “200”, “530 nm and a background absorbance (subtract from the measurement at 530 nm) at 690” for “565”, “h.” for “h, and the resulting absorbance was set to 100%.”

SW480 cells = assay: Inhibition of cancer cell proliferation, total cellular protein (Sulphorhodamine B), SW480; details: Homo sapiens, 72 h, read-out: IC50 based on quantitation of total cellular protein after treatment
Description: as §1, §2, §3
After protein precipitation using TCA according to the manufacturer's instructions, the sulforhodamine B dye (50 μL/well) was added to the air-dried wells. […] After air drying, bound dye was solubilised in 100 μL 10 mM Tris base, and the absorbance of dye was measured at 530 nm and a background absorbance (subtract from the measurement at 530 nm) at 690 nm. To quantify growth, samples were collected also at t=0 h.

NMRI mice = assay: In vivo tolerance in NMRI mice; design: species or system mouse; details: 25 and 45 mg/kg
Description: In vivo tolerance was tested in NMRI mice using Examples 157 and 183 in 2 doses (25 and 45 mg/kg), following intraperitoneal injections daily for seven days.

[1] = system: F-2,6-P2 in MIA PaCa-2 cells; assay: Quantification of F-2,6-P2 (Van Schaftingen coupled enzyme assay) in MIA PaCa-2 cells; format: cell-based; details: Homo sapiens, read-out: IC50 based on quantification of F-2,6-P2
Description: as §4, §5
Cell line F (MIA PaCa-2, human pancreatic carcinoma): MIA PaCa-2 cells (ATCC-CRL-1420), lot. no. 59270201. Cells were seeded at a concentration of ˜250 000 cells/mL in 100 μL growth medium (˜25 000 cells/well). […]

[2] = Cell toxicity, CellTiter-Blue Cell Viability Assay; details: human, MIA PaCa-2 pancreatic carcinoma cells, MIA PaCa-2 cells, 72 h culture, read-out: IC50 based on cell toxicity
Description: The CellTiter-Blue® Cell Viability Assay provides a homogeneous, fluorometric method for estimating the number of viable cells present in multi-well plates. It uses the indicator dye resazurin to measure the metabolic capacity of cells. Viable cells retain the ability to reduce resazurin into resorufin, which is highly fluorescent.
Stock solutions (10 or 100 mM in DMSO) of compounds were serially diluted 1:2 in 11 concentrations. 25 nL/well (100 mM stock) or 50 nL/well (10 mM stock) were acoustically dispensed in assay plates with EDC acoustic dispenser. Final starting conc. in assay was 20 μM (0.2% DMSO) or 100 μM (0.1% DMSO) for test compounds.
Cells (MIA-PaCa-2; pancreatic carcinoma) were seeded in assay plates (384-well black/clear, Greiner #781091) pre-dispensed with compounds, 25 μL/well, and cultured for 72 h. The cell concentration was 750 cells/well. After 72 h culture, Celltiter Blue reagent was added (5 μL/well) and the plates were incubated for 2 h. The plates were read in an Envision fluorescence reader with Ex544 nm/Em590 nm. Results were calculated as % cytotoxicity compared to background (cells treated with 0.2% DMSO).

COC(=O)c1ccc(NS(=O)(=O)c2cc(-c3ccccc3O)c(Cl)s2)cc1O [Example 156, Methyl 4-({[5-chloro-4-(2-hydroxyphenyl)-2-thienyl]sulfonyl}amino)-2-hydroxybenzoate]
IC50 (PANC-1 cells): 16.1 µM | IC50 (F-2,6-P2 in SW620 cells): 2.8 µM

CCC(COC)OC(=O)c1ccc(NS(=O)(=O)c2cc(Cl)cc(Cl)c2)cc1O (stereo not drawn) [Example 189, 1-(Methoxymethyl)propyl 4-{[(3,5-dichlorophenyl)sulfonyl]amino}-2-hydroxybenzoate]
IC50 (NUGC-3 cells): 16.4 µM

O=C(OCCCN1CCOCC1)c1ccc(NS(=O)(=O)c2c(Cl)sc(Cl)c2Br)cc1O [Example 199, 3-Morpholin-4-ylpropyl 4-{[(4-bromo-2,5-dichlorothiophen-3-yl)sulfonyl]amino}-2-hydroxybenzoate trifluoroacetate]
IC50 (PANC-1 cells): 20.6 µM

CC(C)OC(=O)c1ccc(NS(=O)(=O)c2cc(Cl)c(Cl)s2)cc1O [Example 68, Isopropyl 4-{[(4,5-dichloro-2-thienyl)sulfonyl]amino}-2-hydroxybenzoate]
IC50 (PANC-1 cells): 15.6 µM

COCCOC(=O)c1ccc(NS(=O)(=O)c2cccc(-c3cc(F)ccc3F)c2)cc1O [Example 172, 2-Methoxyethyl 4-{[(2′,5′-difluorobiphenyl-3-yl)sulfonyl]amino}-2-hydroxybenzoate]
IC50 (SW480 cells): 15.9 µM

O=C(OCCOc1ccccc1)c1ccc(NS(=O)(=O)c2cccc(-c3cc(F)ccc3O)c2)cc1O [Example 203, 2-Phenoxyethyl 4-{[(5′-fluoro-2′-hydroxybiphenyl-3-yl)sulfonyl]amino}-2-hydroxybenzoate]
IC50 (NUGC-3 cells): 6.8 µM

COC(=O)c1ccc(NS(=O)(=O)c2cc(-c3cc(F)ccc3F)c(Cl)s2)cc1O [Example 45, Methyl 4-({[5-chloro-4-(2,5-difluorophenyl)-2-thienyl]sulfonyl}amino)-2-hydroxybenzoate]
IC50 (NUGC-3 cells): 22.5 µM

COCC(C)OC(=O)c1ccc(NS(=O)(=O)c2cc(Cl)cc(Cl)c2)cc1O (stereo not drawn) [Example 192, 2-Methoxy-1-methylethyl 4-{[(3,5-dichlorophenyl)sulfonyl]amino}-2-hydroxybenzoate]
IC50 (SW480 cells): 22.3 µM

CCC(COC)OC(=O)c1ccc(NS(=O)(=O)c2cc(Cl)c(Cl)s2)cc1O (stereo not drawn) [Example 195, 1-(Methoxymethyl)propyl 4-{[(4,5-dichlorothiophen-2-yl)sulfonyl]amino}-2-hydroxybenzoate]
IC50 (SW480 cells): 20.4 µM

COC(=O)c1ccc(NS(=O)(=O)c2cccc(-c3cc(F)ccc3O)c2)cc1O [Example 134, Methyl 4-{[(5′-fluoro-2′-hydroxybiphenyl-3-yl)sulfonyl]amino}-2-hydroxybenzoate]
IC50 (NUGC-3 cells): 13 µM

COC(=O)c1ccc(NS(=O)(=O)c2cc(-c3cc(F)ccc3O)c(Cl)s2)cc1O [Example 157, methyl 4-({[5-chloro-4-(5-fluoro-2-hydroxyphenyl)-2-thienyl]sulfonyl}amino)-2-hydroxybenzoate]
histological examinations of organs (NMRI mice; intraperitoneal daily for seven days, adrenal gland, brain, cerebellum, heart, intestines, kidneys, liver, lungs, mesenteric lymph node, pancreas, spleen): Specific lesions consistent with toxic damage were not observed | macro observations during and after treatment (NMRI mice; intraperitoneal injections daily for seven days): no sign of abnormal behavior or health problem | IC50 [1]: 2 µM

O=C(OCCCN1CCOCC1)c1ccc(NS(=O)(=O)c2cc(-c3ccc4c(c3)CCO4)c(Cl)s2)cc1O [Example 163, 3-Morpholin-4-ylpropyl 4-({[5-chloro-4-(2,3-dihydro-1-benzofuran-5-yl)-2-thienyl]sulfonyl}amino)-2-hydroxybenzoate trifluoroacetate]
IC50 (PANC-1 cells): 30.2 µM

COCC(C)OC(=O)c1ccc(NS(=O)(=O)c2cc(Cl)c(Cl)s2)cc1O (stereo not drawn) [Example 194, 2-Methoxy-1-methylethyl 4-{[(4,5-dichlorothiophen-2-yl)sulfonyl]amino}-2-hydroxybenzoate]
IC50 (F-2,6-P2 in SW620 cells): 0.8 µM

O=C(OCC1CCOC1)c1ccc(NS(=O)(=O)c2cc(Cl)c(Cl)s2)cc1O (stereo not drawn) [Example 75, Tetrahydrofuran-3-ylmethyl 4-{[(4,5-dichloro-2-thienyl)sulfonyl]amino}-2-hydroxybenzoate]
IC50 at 72 h [2]: 25.3 µM

CCC(COC(=O)c1ccc(NS(=O)(=O)c2cccc(-c3cc(F)ccc3O)c2)cc1O)OC (stereo not drawn) [Example 182, 2-Methoxybutyl 4-{[(5′-fluoro-2′-hydroxybiphenyl-3-yl)sulfonyl]amino}-2-hydroxybenzoate]
IC50 at 72 h [2]: 6.3 µM
